The assay can be described thus: Effective concentration of compound in producing vasoconstrictions was determined. The format is functional.

Regarding `CC(C)[C@H](NC(=O)[C@@H]1CSSC[C@@H](NC(=O)[C@@H](N)CC(=O)O)C(=O)N[C@@H](Cc2ccccc2)C(=O)N[C@@H](Cc2c[nH]c3ccccc23)C(=O)N[C@@H](CCCCN)C(=O)N[C@@H](Cc2ccc(O)cc2)C(=O)N1)C(=O)O`, the pD2 worked out at 8.6.
Next, `CC(C)[C@H](NC(=O)[C@@H]1CSSC[C@@H](NC(=O)[C@H](CC(=O)O)NC(=O)[C@H]2CCCN2C(=O)[C@@H](NC(=O)[C@@H](N)CCC(=O)O)[C@@H](C)O)C(=O)N[C@H](Cc2ccccc2)C(=O)N[C@@H](Cc2c[nH]c3ccccc23)C(=O)N[C@H](CCCCN)C(=O)N[C@@H](Cc2ccc(O)cc2)C(=O)N1)C(=O)O`: 8.3; `CC(C)[C@H](NC(=O)[C@@H]1NC(=O)[C@H](Cc2ccc(O)cc2)NC(=O)[C@H](CCCCN)NC(=O)[C@H](Cc2c[nH]c3ccccc23)NC(=O)[C@H](Cc2ccccc2)NC(=O)[C@@H](NC(=O)[C@@H](N)CC(=O)O)CSSC1(C)C)C(=O)O`: 6.7.
Next, `CC(C)[C@H](NC(=O)[C@@H]1NC(=O)[C@H](Cc2ccc(O)cc2)NC(=O)[C@H](CCCCN)NC(=O)[C@H](Cc2c[nH]c3ccccc23)NC(=O)[C@H](Cc2ccccc2)NC(=O)[C@H](NC(=O)[C@@H](N)CC(=O)O)C(C)(C)SSC1(C)C)C(=O)O`: 8.2; `CC(C)[C@H](NC(=O)[C@@H]1CCSSC[C@H](NC(=O)[C@@H](N)CC(=O)O)C(=O)N[C@@H](Cc2ccccc2)C(=O)N[C@@H](Cc2c[nH]c3ccccc23)C(=O)N[C@@H](CCCCN)C(=O)N[C@@H](Cc2ccc(O)cc2)C(=O)N1)C(=O)O`: under 6.5; `CC(C)[C@H](NC(=O)[C@@H]1CSSC(C)(C)[C@@H](NC(=O)[C@@H](N)CC(=O)O)C(=O)N[C@@H](Cc2ccccc2)C(=O)N[C@@H](Cc2c[nH]c3ccccc23)C(=O)N[C@@H](CCCCN)C(=O)N[C@@H](Cc2ccc(O)cc2)C(=O)N1)C(=O)O`: 9.6.

The record behind these values is ChEMBL document CHEMBL1149115, “Unraveling the active conformation of urotensin II” (J Med Chem, 2004).
